Holding throughout (format): cell-based, Neurospora crassa
Assay [1] relates to cellobiohydrolase I (cbh-1, NCU07340). Put plainly: Quantitative RT-PCR of cbh-1 expression after 4 h induction with a carbon source. The procedure:
Strains were inoculated at an OD595 equal to 0.05 in 50 ml Vogel's salts with 2% (wt/vol) sucrose in a 250 ml Erlenmeyer flask and grown under constant light at 200 rpm for 16 hours. The biomass was then spun at 4000 rpm for 10 minutes and washed in Vogel's twice to remove any excess sucrose. The biomass was then added to a new 50 ml culture with 2% (wt/vol) sucrose, cellobiose (Sigma) or Avicel® PH 101 (Avicel®). Cultures were induced for 4 hours under constant light at 200 rpm. The culture biomass was then harvested by filtration over a Whatman glass microfiber filter (GF/F) on a Buchner funnel and washed with 50 ml Vogel's, biomass was flash frozen in liquid Nitrogen and stored at −80° C.
Total RNA from frozen samples was isolated using Zirconia/Silica beads (0.2 g, 0.5 mm diameter; Biospec) and a Mini-Beadbeater-96 (Biospec) with 1 mL TRIzol reagent (Invitrogen) according to manufacturer's instructions. Total RNA was further purified by digestion with TURBO DNA-free (Ambion) and an RNeasy kit (Qiagen). RNA integrity was checked by Nanodrop and agarose gel electrophoresis.
Quantitative RT-PCR was performed using the EXPRESS One-Step SYBR GreenER Kit (Invitrogen) and the StepOnePlus Real-Time PCR System (Applied Biosystems). Reactions were performed in triplicate with a total reaction volume of 10 ul including 300 nM each forward and reverse primers and 75 ng template RNA. Data Analysis was performed by the StepOne Software (Applied Biosystems) using Relative Quantitation/Comparative CT (ΔΔCT). Data was normalized to the endogenous control actin with expression on sucrose as the reference sample. Error bars indicate a 95% confidence interval. The RT-PCR primers were used as described in (Tian et al., 2009).
Conidia from strains were inoculated at an OD595 equal to 0.05 in 50 ml Vogel's salts (45) with 2% w/v sucrose in a 250 ml Erlenmeyer flask and grown under constant light at 200 rpm for 16 hours. Biomass was then spun at 4200 rpm for 10 minutes and washed in Vogel's salts twice to remove any excess sucrose. Biomass was then added to a new flask containing 50 ml Vogel's salts supplemented with 1% w/v sucrose, 0.2% w/v cellobiose (Sigma) or 1% w/v Avicel® PH 101 (Sigma). Cultures were induced for 4 hrs under constant light at 200 rpm. The culture biomass was then harvested by filtration over a Whatman glass microfiber filter (GF/F) on a Buchner funnel and washed with 50 ml Vogel's salts. […] Three independent biological duplicates (flasks) were evaluated for each time point. […]
Quantitative RT-PCR was performed using the EXPRESS One-Step SYBR GreenER Kit (Invitrogen) and the StepOnePlus Real-Time PCR System (Applied Biosystems). […] Data Analysis was performed by the StepOne Software (Applied Biosystems) using the Relative Quantitation/Comparative CT (ΔΔCT) setting. […]

The next assay concerns NCU07760 (gh61-2). Put plainly: mRNA sequencing (RNA-Seq), transcript abundance of gh61-2. Conditions: Δ3βG mutant; 4 hours after transfer to 0.2% cellobiose. The procedure:
(§1) Conidia from strains were inoculated at an OD595 equal to 0.05 in 50 ml Vogel's salts (45) with 2% w/v sucrose in a 250 ml Erlenmeyer flask and grown under constant light at 200 rpm for 16 hours. Biomass was then spun at 4200 rpm for 10 minutes and washed in Vogel's salts twice to remove any excess sucrose. Biomass was then added to a new flask containing 50 ml Vogel's salts supplemented with 1% w/v sucrose, 0.2% w/v cellobiose (Sigma) or 1% w/v Avicel® PH 101 (Sigma). Cultures were induced for 4 hrs under constant light at 200 rpm. The culture biomass was then harvested by filtration over a Whatman glass microfiber filter (GF/F) on a Buchner funnel and washed with 50 ml Vogel's salts. The biomass was flash frozen in liquid nitrogen and stored at −80° C. Three independent biological duplicates (flasks) were evaluated for each time point.
(§2) Total RNA from frozen samples was isolated using Zirconia/Silica beads (0.5 mm diameter; Biospec) and a Mini-Beadbeater-96 (Biospec) with 1 mL TRIzol reagent (Invitrogen) according to the manufacturer's instructions. […]
(§3) mRNA sequencing was performed using an Illumina kit (RS-100-0801) with isolated RNA. The final cDNA library was quantified by an Agilent bioanalyzer 2000 and sequenced using an Illumina Genome Analyzer-II using standard Illumina operating procedures. […]

Assay [2] deals with NCU05924 (endoxylanase, gh10-1). The experiment in a line: mRNA sequencing (RNA-Seq), transcript abundance of gh10-1. To be noted: Δ3βG mutant; 4 hours after transfer to 0.2% cellobiose. The procedure:
as §1, §2, §3

As to `O=C[C@H](O)[C@@H](O)[C@H](O[C@@H]1O[C@H](CO)[C@@H](O)[C@H](O)[C@H]1O)[C@H](O)CO` [cellobiose], the “induction for cbh-1 compared to relative expression on sucrose” value in assay [1] (WT strain, 2% carbon source, 4 h induction) stood at 20 fold. For the same compound, in assay [1] (triple β-glucosidase mutant, 2% carbon source, 4 h induction), the “cbh-1 increase in relative expression over expression on sucrose” value is 6,500 fold. For the same compound, the “increase in transcription of cbh-1 above expression on sucrose in the same strain” value in assay [1] (Δcre-1 strain, 4 h induction (Example 1)) is on record as 600 fold. Further, the “induction of cbh-1” value in assay [1] (Δcre-1 strain, shifted from sucrose to 0.2% cellobiose for 4 hrs) is reported as 3,000 fold. The “FPKM of NCU07760 (gh61-2)” value in the assay with NCU07760 (gh61-2) was 538 FPKM. Also, the “FPKMs of NCU05924 (endoxylanase, gh10-1)” value in assay [2] was 10,000 FPKMs.

Source of the values: patent US9822373B2, “Mutant cells for protein secretion and lignocellulose degradation” (The Regents of the University of California, priority 2011, dated 2017).
